Results reported in ChEMBL document CHEMBL1150230, “Mappain, a new cytotoxic prenylated stilbene from Macaranga mappa” (J Nat Prod, 2001).

Key:
Assay type in all cases: functional, cell-based
SK-OV-3 = experiment: Cytotoxicity against multidrug-sensitive human SKOV3 cells by SRB assay
[1] = Cytotoxicity against multidrug-resistant human SKVLB1cells by SRB assay
MDA-MB-435 = experiment: Cytotoxicity against multidrug-sensitive human MDA-MB-435 cells by SRB assay

What does the source list for `CC(C)=CCC/C(C)=C/Cc1cc(/C=C/c2cc(O)c(CC=C(C)C)c(O)c2)cc(O)c1O` [MAPPAIN]?
IC50 (SK-OV-3): 1300 nM; IC50 [1]: 1300 nM; IC50 (MDA-MB-435): 1000 nM
